Columns and labels:
[1] = tested on: mutant kras/lkb 1 deficient nsclc tumors in transgenic mice; experiment: Survival of adenoCre-infected KRasG12D/LKB1 FL/FL/luci mice (FIG. 9); assay type: in vivo; settings: Cisplatin once per week 2.5 mg/kg, with or without AZD1775 30 mg/kg three times per week; treated for four weeks; log-rank analysis
Method: Referring to FIG. 9, the investigators transiently infected 6-8 week old KRas^G12D/LKB 1^FL/FL/luci with 5×10^6 P.F.U. of adenoCre via intratracheal inhalation. Mice received scans using the Xenogen IVIS at 8 weeks to identify disease. Mice were then randomized to Cisplatin (once per week, 2.5 mg/kg) or AZD1775 (30 mg/kg, three times per week)+cisplatin and treated for four weeks. Survival was calculated via log-rank analysis. It was observed that the median survival rate of mice receiving Cisplatin was 12 weeks, whereas the median survival rate of mice receiving Cisplatin+AZD1775 was 14 weeks. For this set of experiments, the hazard ratio was 0.3972, while the confidence interval was 0.0605-0.6086.

A549 cell line = experiment: Percent viability with AZD1775, LKB1 rescue vs KDLKB1 transfection (FIG. 2B); assay type: cell-based, human; settings: A549 cells with rescue copy of LKB1 compared to control KDLKB1 (non-functional kinase)
Method: FIG. 2B illustrates, in accordance with embodiments herein, the role of LKB1 in the sensitivity of […] to AZD1775. The A549 cell line was transfected with either a rescue copy of LKB1 (“LKB1”) or a copy of LKB1 with a non-functional kinase domain (“KDLKB1”) that produces non-functional LKB1. […] Next, referring to FIGS. 2A-2C, the LKB1 deficient lines discussed above in reference to FIGS. 1A and 1B were assessed for percent viability in the presence of increasing concentrations of AZD1775. Moreover, as all three cell lines were already LKB1 deficient, the inventors wanted to elucidate the role of LKB1 in the sensitivity of these cells to AZD1775. As such, each cell line with transfected with either a rescue copy of LKB1 (referred to as “LKB1” in these figures) or a copy of LKB1 with a non-functional kinase domain (referred to as KDLKB1 in these figures), which would produce non-functional LKB1.

[2] = tested on: LKB1 deficient cells (A427, A549, and H2030); experiment: Viability of KRas mutant NSCLC adenocarcinoma cell lines at various concentrations of AZD1775 (FIGS. 1A, 1B); assay type: cell-based, human; settings: LKB1 deficient cells compared with the other KRas mutant NSCLC cell lines
Excerpt: Referring to FIGS. 1A and 1B, the inventors assessed the impact of various concentrations of a G2/M checkpoint inhibitor (i.e., Wee1 kinase inhibitor-AZD1775) on various cell lines with different genetic backgrounds. All of the cell lines tested in FIGS. 1A and 1B where KRas mutant, some of the cell lines were p53 mutants, and some of the cell lines (i.e., A427, A549, and H2030) were LKB1 deficient. All cell lines were adenocarcinoma from patients with NSCLC.

[3] = tested on: H2030 cells (KRas mutant and LKB1 deficient); experiment: Viability with AZD1775 combined with cisplatin, pemetrexed or gemcitabine (FIGS. 3A-3C); assay type: cell-based, human; settings: AZD1775 alone
Method: Similar to the previous experiments, H2030 cells (KRas mutant and LKB1 deficient) were transfected with a rescue copy of LKB1 or a version of LKB1 with a non-functional kinase domain that produces non-functional LKB1 protein. Moreover, these different cells were treated with AZD1775 (also referred to as MK1775) in combination with cisplatin (FIG. 3A), pemetrexed (FIG. 3B), or gemcitabine (FIG. 3C).

H2030 cell line = experiment: Percent viability with AZD1775, LKB1 rescue vs KDLKB1 transfection (FIG. 2C); assay type: cell-based, human; settings: H2030 cells with rescue copy of LKB1 compared to control KDLKB1 (non-functional kinase)
Method: FIG. 2C illustrates, in accordance with embodiments herein, the role of LKB1 in the sensitivity of […] to AZD1775. The H2030 cell line was transfected with either a rescue copy of LKB1 (“LKB1”) or a copy of LKB1 with a non-functional kinase domain (“KDLKB1”) that produces non-functional LKB1.
Next, referring to FIGS. 2A-2C, the LKB1 deficient lines discussed above in reference to FIGS. 1A and 1B were assessed for percent viability in the presence of increasing concentrations of AZD1775. Moreover, as all three cell lines were already LKB1 deficient, the inventors wanted to elucidate the role of LKB1 in the sensitivity of these cells to AZD1775. As such, each cell line with transfected with either a rescue copy of LKB1 (referred to as “LKB1” in these figures) or a copy of LKB1 with a non-functional kinase domain (referred to as KDLKB1 in these figures), which would produce non-functional LKB1.

[4] = tested on: 3381A murine cells (KRas mutant and LKB1 deficient); experiment: Percent viability with AZD1775, LKB1 rescue vs empty vector pBabe (FIG. 2D); assay type: cell-based; settings: 3381A cells with rescue copy of LKB1 compared to control empty vector (pBabe)
Method: Referring now to FIG. 2D, a similar experiment was conducted on murine cells that were KRas mutant and LKB1 deficient (3381A cells).

A427 cell line = experiment: Percent viability with AZD1775, LKB1 rescue vs KDLKB1 transfection (FIG. 2A); assay type: cell-based, human; settings: A427 cells with rescue copy of LKB1 compared to control KDLKB1 (non-functional kinase)
Method: FIG. 2A illustrates, in accordance with embodiments herein, the role of LKB1 in the sensitivity of A427 cells to AZD1775. The A427 cell line was transfected with either a rescue copy of LKB1 (“LKB1”) or a copy of LKB1 with a non-functional kinase domain (“KDLKB1”) that produces non-functional LKB1. […] Next, referring to FIGS. 2A-2C, the LKB1 deficient lines discussed above in reference to FIGS. 1A and 1B were assessed for percent viability in the presence of increasing concentrations of AZD1775. Moreover, as all three cell lines were already LKB1 deficient, the inventors wanted to elucidate the role of LKB1 in the sensitivity of these cells to AZD1775. As such, each cell line with transfected with either a rescue copy of LKB1 (referred to as “LKB1” in these figures) or a copy of LKB1 with a non-functional kinase domain (referred to as KDLKB1 in these figures), which would produce non-functional LKB1.

A549 and H2030 cells = experiment: Cell signaling molecules after AZD1775 alone and with 2Gy ionizing radiation (FIGS. 4A, 4B); assay type: cell-based, human; settings: AZD1775 alone and in combination with 2Gy of ionizing radiation
Excerpt: Next, referring now to FIGS. 4A and 4B, the investigators examined cell signaling molecules in A549 and H2030 cells, including both rescue and control conditions. The investigators treated with AZD1775 alone and in combination with 2Gy of ionizing radiation.

## N.N.[Cl][Pt][Cl] [Cisplatin]
[1]
  median survival rate: 12 weeks

## C=CCn1c(=O)c2cnc(Nc3ccc(N4CCN(C)CC4)cc3)nc2n1-c1cccc(C(C)(C)O)n1 [AZD1775]
A549 cell line
  sensitivity to AZD1775 as measured by percent viability: less sensitive
[2]; FIG. 1B
  EC50 values: lowest EC50 values
[2]; increasing concentrations of AZD1775, FIG. 1A
  viability: greatest reduced viability
[3]
  cell viability: negative impact on cell viability
H2030 cell line
  sensitivity to AZD1775 as measured by percent viability: less sensitive
[4]
  sensitivity to AZD1775 as measured by percent viability: less sensitive
A427 cell line
  sensitivity to AZD1775 as measured by percent viability: less sensitive
A549 and H2030 cells; LKB1 (rescue) cells
  phosphorylated AMPK: increased amounts of phosphorylated AMPK
A549 and H2030 cells; LKB1-deficient cells
  phosphorylated H2AX (indicator of DNA damage): increased amount of phosphorylated H2AX
